Assay results as given in the supplement of paper PMC12463676, “Small-molecule dissolution of stress granules by redox modulation benefits ALS models” (Nature Chemical Biology, 2025).

Tests used:
[1] = compound: NC(=O)CCCCC1CCSS1 [lipoamide]; assay: thermal stability z-score vs DMSO; higher = more thermally stabilized by treatment; details: HeLa, lipoamide concentration 100 µM
Protocol: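 Cellular thermal proteome profiling in HeLa cells. Cells were treated with 100 µM lipoamide for 1 h, with or without 1 mM arsenate for a further 1 h, then heated to ten temperatures (37-66.3 °C), and soluble protein was quantified by TMT mass spectrometry relative to 0.1% DMSO controls. The thermal stability score (sum of log2 fold changes minus the abundance score) was transformed to a z-score; mean of n = 3 experiments.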

[2] = compound: O=[As]([O-])(O)O.[K+] [potassium arsenate]; assay: as above; details: HeLa; arsenate concentration 1 mM
Protocol: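 Cellular thermal proteome profiling in HeLa cells treated with 1 mM arsenate for 1 h (DMSO pretreatment), heated to ten temperatures (37-66.3 °C). Soluble protein was quantified by TMT mass spectrometry relative to DMSO controls; the thermal stability score was transformed to a z-score; mean of n = 3 experiments.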

[3] = arsenate co-treatment: 1 mM arsenate 1 h
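Note: each temperature applied for 3 min, abundance score taken as mean log2 fold change at the two lowest temperatures, z-score obtained by mean subtraction and division by SD.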

Sequence of UniProt P62937 (P62937 whole entry, looked up): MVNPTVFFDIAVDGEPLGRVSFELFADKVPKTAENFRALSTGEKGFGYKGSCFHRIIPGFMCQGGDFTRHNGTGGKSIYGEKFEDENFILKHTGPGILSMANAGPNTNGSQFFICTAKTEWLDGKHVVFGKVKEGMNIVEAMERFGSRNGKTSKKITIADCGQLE
Sequence of UniProt Q13724 (Q13724 whole entry): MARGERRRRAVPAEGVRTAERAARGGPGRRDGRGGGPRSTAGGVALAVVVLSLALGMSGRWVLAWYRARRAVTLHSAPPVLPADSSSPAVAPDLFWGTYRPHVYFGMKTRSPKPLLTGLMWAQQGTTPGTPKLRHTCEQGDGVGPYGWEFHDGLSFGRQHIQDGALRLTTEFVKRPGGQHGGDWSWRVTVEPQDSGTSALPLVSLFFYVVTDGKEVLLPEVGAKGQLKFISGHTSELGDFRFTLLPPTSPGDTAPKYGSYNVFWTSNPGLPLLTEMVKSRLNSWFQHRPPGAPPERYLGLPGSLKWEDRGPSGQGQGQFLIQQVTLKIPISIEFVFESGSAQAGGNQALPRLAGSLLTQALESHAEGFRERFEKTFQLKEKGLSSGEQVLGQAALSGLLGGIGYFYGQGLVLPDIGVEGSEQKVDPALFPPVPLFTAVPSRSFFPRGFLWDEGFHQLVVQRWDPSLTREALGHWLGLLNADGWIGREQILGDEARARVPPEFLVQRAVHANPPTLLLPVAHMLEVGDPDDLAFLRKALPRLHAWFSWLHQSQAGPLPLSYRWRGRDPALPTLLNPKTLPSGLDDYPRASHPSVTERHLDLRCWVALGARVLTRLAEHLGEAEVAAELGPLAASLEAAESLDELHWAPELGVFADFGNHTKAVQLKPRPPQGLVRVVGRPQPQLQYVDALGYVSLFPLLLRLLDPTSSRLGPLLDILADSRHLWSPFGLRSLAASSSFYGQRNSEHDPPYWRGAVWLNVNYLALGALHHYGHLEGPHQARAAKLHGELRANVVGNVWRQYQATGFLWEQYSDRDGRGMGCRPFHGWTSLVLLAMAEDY
Sequence of UniProt O00159 (O00159 whole entry): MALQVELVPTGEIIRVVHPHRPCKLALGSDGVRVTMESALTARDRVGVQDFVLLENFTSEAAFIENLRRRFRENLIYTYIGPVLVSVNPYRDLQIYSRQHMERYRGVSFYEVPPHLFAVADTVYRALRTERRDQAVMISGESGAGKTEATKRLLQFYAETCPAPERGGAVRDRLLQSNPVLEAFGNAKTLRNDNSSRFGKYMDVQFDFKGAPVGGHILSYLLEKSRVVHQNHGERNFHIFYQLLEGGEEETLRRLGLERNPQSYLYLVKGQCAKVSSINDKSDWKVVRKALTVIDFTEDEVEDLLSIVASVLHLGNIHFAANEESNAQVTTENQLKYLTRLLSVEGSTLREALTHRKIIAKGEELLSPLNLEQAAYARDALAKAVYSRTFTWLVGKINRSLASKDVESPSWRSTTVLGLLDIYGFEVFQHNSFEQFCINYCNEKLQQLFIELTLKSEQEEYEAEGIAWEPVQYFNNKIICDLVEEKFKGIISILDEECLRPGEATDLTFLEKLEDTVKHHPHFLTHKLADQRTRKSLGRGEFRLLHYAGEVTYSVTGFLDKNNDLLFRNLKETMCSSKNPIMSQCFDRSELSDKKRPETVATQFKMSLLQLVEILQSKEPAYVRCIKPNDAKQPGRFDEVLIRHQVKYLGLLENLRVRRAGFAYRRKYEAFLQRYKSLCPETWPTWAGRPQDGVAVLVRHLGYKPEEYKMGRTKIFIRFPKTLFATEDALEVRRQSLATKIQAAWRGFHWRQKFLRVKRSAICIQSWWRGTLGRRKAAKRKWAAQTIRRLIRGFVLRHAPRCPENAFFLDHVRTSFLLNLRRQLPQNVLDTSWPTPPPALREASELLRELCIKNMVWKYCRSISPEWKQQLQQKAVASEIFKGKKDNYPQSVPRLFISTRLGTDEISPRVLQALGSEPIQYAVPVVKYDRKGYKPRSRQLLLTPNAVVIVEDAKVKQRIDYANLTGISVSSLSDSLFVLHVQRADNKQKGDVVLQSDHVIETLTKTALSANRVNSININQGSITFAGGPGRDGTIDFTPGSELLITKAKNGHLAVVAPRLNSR
Sequence of UniProt Q96EX1 (Q96EX1 whole entry): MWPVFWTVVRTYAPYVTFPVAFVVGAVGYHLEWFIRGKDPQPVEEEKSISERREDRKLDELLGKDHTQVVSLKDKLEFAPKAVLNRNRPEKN
Sequence of UniProt O95707 (O95707 whole entry): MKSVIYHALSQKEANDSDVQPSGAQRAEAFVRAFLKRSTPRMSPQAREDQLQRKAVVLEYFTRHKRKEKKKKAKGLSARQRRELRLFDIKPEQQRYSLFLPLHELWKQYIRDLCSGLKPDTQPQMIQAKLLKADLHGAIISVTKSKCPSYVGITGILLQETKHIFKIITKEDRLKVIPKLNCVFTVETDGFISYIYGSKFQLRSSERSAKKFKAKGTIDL
Sequence of UniProt Q13438 (Q13438 whole entry): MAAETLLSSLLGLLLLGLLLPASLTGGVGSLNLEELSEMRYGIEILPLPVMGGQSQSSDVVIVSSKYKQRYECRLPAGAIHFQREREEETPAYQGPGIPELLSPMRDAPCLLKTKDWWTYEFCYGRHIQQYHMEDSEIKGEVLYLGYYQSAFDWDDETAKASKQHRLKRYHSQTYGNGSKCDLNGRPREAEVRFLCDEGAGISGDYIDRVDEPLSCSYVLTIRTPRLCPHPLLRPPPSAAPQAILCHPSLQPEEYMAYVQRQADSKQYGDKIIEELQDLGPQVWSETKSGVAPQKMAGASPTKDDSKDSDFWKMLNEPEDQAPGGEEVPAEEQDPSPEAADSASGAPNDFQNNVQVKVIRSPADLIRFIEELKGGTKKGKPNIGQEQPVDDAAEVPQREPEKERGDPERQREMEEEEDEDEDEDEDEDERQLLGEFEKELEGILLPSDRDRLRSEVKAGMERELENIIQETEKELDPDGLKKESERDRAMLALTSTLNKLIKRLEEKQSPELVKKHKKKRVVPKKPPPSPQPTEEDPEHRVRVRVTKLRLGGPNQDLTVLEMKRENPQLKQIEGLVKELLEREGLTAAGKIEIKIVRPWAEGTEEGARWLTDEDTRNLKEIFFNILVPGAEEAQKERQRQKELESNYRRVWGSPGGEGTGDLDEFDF
Sequence of UniProt Q8WWW0 (Q8WWW0 whole entry): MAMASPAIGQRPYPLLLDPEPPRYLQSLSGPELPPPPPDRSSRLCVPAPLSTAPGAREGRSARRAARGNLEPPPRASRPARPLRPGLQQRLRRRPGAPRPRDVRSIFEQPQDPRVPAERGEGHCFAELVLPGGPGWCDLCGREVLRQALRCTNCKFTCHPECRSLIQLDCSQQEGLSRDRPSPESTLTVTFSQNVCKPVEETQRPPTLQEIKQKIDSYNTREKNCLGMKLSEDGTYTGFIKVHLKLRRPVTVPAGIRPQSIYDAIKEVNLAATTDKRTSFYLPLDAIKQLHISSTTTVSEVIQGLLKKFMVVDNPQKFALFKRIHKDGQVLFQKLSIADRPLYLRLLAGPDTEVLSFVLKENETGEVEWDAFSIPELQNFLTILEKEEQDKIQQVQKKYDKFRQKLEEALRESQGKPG
Sequence of UniProt Q00653 (Q00653 whole entry): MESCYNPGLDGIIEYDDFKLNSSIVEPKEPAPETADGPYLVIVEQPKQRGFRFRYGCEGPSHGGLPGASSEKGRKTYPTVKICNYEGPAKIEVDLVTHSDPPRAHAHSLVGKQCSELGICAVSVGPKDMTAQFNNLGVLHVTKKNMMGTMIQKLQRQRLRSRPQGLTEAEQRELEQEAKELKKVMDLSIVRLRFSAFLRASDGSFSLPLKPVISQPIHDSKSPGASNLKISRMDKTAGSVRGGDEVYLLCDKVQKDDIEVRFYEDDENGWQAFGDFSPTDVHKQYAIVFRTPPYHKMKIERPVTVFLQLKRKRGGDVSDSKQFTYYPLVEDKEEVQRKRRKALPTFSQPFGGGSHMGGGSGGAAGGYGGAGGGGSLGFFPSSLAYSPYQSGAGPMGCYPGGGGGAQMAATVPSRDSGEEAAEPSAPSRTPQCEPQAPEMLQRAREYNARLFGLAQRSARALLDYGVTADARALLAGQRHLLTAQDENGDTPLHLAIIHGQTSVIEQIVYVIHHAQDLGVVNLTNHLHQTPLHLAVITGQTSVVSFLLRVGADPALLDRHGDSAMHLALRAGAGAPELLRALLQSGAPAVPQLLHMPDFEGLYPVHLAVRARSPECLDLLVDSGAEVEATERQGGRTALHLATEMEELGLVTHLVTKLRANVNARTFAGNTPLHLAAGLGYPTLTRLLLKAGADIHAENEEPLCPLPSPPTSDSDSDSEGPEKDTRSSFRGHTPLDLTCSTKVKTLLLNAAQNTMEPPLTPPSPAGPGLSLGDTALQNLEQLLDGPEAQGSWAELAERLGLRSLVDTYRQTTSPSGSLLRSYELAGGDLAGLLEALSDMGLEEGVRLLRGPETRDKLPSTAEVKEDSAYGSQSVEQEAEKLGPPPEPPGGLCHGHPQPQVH
Sequence of UniProt P51858 (P51858 whole entry): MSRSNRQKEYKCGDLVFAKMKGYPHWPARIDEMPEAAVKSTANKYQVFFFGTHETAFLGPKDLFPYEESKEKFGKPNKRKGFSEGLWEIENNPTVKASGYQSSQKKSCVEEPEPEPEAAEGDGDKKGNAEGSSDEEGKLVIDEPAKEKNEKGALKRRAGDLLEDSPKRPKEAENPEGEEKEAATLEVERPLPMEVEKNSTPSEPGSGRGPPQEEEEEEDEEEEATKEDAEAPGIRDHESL
Sequence of UniProt Q96C19 (Q96C19 whole entry): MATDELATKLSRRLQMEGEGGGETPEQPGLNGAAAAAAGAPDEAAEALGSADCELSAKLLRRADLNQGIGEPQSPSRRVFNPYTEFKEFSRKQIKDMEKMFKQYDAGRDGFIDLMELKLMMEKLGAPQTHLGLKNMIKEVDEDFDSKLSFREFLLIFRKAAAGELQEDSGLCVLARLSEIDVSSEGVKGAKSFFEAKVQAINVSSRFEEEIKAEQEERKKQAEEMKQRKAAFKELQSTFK

Target	thermal stability z-score [1, 3]	thermal stability z-score ([1]; arsenate co-treatment: none)	thermal stability z-score [2]
MOSPD2 (UniProt Q8NHP6)	-0.58	-0.383	-0.254
MTMR12 (UniProt Q9C0I1)	0.611	-0.0556	-0.0618
TRNT1 (UniProt Q96Q11)	0.00685	-0.189	-0.174
TBC1D2B (UniProt Q9UPU7)	-0.169	-0.202	-0.23
OS9 (UniProt Q13438)	-3.59	-3.15	0.706
UHRF1BP1 (UniProt Q6BDS2)	-0.235	0.193	0.149
MYO1C (UniProt O00159)	1.12	0.329	-1.94
C3ORF58 (UniProt Q8NDZ4)	-0.093	-0.000578	0.287
CTBP1 (UniProt Q13363)	1.13	-0.19	0.629
PTPN23 (UniProt Q9H3S7)	-0.214	-0.0347	0.691
RPS2 (UniProt P15880)	0.307	0.259	-0.532
SMIM12 (UniProt Q96EX1)	-0.371	0.35	0.0454
PRPF8 (UniProt Q6P2Q9)	-0.186	-0.395	-0.418
RQCD1 (UniProt Q92600)	-0.57	-0.143	0.74
CCBL1|KYAT1	0.0425	0.343	0.447
HACD2 (UniProt Q6Y1H2)	-0.673	-0.4	0.798
RASSF5 (UniProt Q8WWW0)	-0.444	-0.459	0.498
DIABLO (UniProt Q9NR28)	0.979	0.495	0.154
PLD3 (UniProt Q8IV08)	0.32	0.424	0.817
TXLNG (UniProt Q9NUQ3)	0.386	0.0198	1.86
YES1 (UniProt P07947)	-0.641	-0.393	-2.98
WDR82 (UniProt Q6UXN9)	0.88	-0.211	-0.75
EXD2 (UniProt Q9NVH0)	-0.228	-0.168	-0.499
MOGS (UniProt Q13724)	-1.24	-0.979	0.158
CIC (UniProt Q96RK0)	0.0454	-0.131	-0.261
NUS1 (UniProt Q96E22)	0.421	0.252	0.015
HDGF (UniProt P51858)	0.026	0.439	0.19
DTWD1 (UniProt Q8N5C7)	-0.492	-0.205	-0.742

Target	thermal stability z-score [1, 3]	thermal stability z-score ([1]; arsenate co-treatment: none)	thermal stability z-score [2]
CPSF6 (UniProt Q16630)	0.848	1.21	0.452
TMEM9 (UniProt Q9P0T7)	-2.36	-2	-0.267
CCDC134 (UniProt Q9H6E4)	-2.13	-1.37	-0.0932
AKAP1 (UniProt Q92667)	0.866	0.652	0.73
CTTN (UniProt Q14247)	0.536	0.451	0.2
FOCAD (UniProt Q5VW36)	0.151	0.411	-0.279
ANKRD28 (UniProt O15084)	-0.25	-0.0938	-0.209
SELENBP1 (UniProt Q13228)	0.567	0.164	0.784
RBM26 (UniProt Q5T8P6)	-0.0221	0.172	-0.536
PITHD1 (UniProt Q9GZP4)	-0.537	0.337	0.158
TRAF7 (UniProt Q6Q0C0)	0.0114	-0.686	-1.01
NFKB2 (UniProt Q00653)	-0.498	0.158	0.523
ETHE1 (UniProt O95571)	0.217	-0.107	0.0234
NMI (UniProt Q13287)	1.24	0.324	2.1
EFHD2 (UniProt Q96C19)	0.403	0.677	-0.223
PPIA (UniProt P62937)	0.27	0.693	-0.295
ZWINT (UniProt O95229)	0.0176	-0.0608	0.0525
TH1L|NELFCD	-0.0628	-0.0836	0.0938
CTU2 (UniProt Q2VPK5)	0.157	0.225	-0.165
C19ORF70|MIC13	0.265	0.131	0.22
SCFD2 (UniProt Q8WU76)	0.0156	-0.09	0.043
FBXL12 (UniProt Q9NXK8)	-0.195	0.0639	-0.29
EI24 (UniProt O14681)	0.221	-0.249	-0.123
UBQLN4 (UniProt Q9NRR5)	1.81	1.78	0.334
POP4 (UniProt O95707)	0.462	0.069	-0.193
EXOC6 (UniProt Q8TAG9)	-0.242	-0.374	-0.201
RAB24 (UniProt Q969Q5)	0.205	0.12	-0.143
